Earlier results on three compounds are cited in patent publication US12109217B2, “Bioactive agents included in functionalized starch having a single helix V-structure” (B-ORGANIC FILMS CORP., priority 2014, dated 2024).

Read-outs that look alike come from different tables or passages of the source.

For data set [1] the following is noted: in vivo.

With `C[C@@H]1CC[C@H]2[C@@H](C)C(=O)O[C@@H]3O[C@@]4(C)CC[C@@H]1[C@]32OO4` [Artemisinin], the oral bioavailability result in data set [1] was “about 30%”.

On to `COC(=O)[C@H](c1ccccc1Cl)N1CCc2sccc2C1` [Clopidogrel bisulfate], for which, where the note is “neutral pH”, the solubility in water result is “insoluble in water”. Moreover, the solubility entry (pH 1-2 (similar to gastric pH)) is given as “freely soluble”.

With `CC(=O)O[C@H]1C(=O)[C@@]2(C)[C@H]([C@H](OC(=O)c3ccccc3)[C@]3(O)C[C@H](OC(=O)[C@H](O)[C@@H](NC(=O)c4ccccc4)c4ccccc4)C(C)=C1C3(C)C)[C@]1(OC(C)=O)CO[C@@H]1C[C@@H]2O` [Paclitaxel], under “water / aqueous medium (and oil where stated)”, the solubility entry is recorded as “poorly soluble in aqueous medium”.
